From ChEMBL document CHEMBL1122788, “Quantitative relationships between alpha-adrenergic activity and binding affinity of alpha-adrenoceptor agonists and antagonists” (J Med Chem, 1984)

Key:
[1] = biological target: T1, Adrenergic receptor alpha-2 (Rattus norvegicus, UniProt P22086+P19328+P22909); assay: Inhibition of specific [3H]clonidine binding (0.4 nM) to rat brain membranes alpha-2 adrenergic receptor; type: cell membranes, Membrane
T1 sequence (P22086 whole entry): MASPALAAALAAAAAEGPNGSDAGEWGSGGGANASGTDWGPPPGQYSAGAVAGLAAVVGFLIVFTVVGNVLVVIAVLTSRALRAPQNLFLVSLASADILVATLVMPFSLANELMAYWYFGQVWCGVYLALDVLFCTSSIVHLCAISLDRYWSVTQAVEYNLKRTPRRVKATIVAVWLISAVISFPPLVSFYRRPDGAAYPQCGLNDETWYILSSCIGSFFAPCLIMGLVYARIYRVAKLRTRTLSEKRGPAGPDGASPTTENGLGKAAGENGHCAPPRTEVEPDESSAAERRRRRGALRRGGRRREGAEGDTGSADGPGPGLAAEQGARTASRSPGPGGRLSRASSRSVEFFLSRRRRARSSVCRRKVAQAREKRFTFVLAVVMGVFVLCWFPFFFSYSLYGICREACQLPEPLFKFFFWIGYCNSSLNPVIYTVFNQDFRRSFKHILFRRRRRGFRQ
T1 sequence (P19328 whole entry): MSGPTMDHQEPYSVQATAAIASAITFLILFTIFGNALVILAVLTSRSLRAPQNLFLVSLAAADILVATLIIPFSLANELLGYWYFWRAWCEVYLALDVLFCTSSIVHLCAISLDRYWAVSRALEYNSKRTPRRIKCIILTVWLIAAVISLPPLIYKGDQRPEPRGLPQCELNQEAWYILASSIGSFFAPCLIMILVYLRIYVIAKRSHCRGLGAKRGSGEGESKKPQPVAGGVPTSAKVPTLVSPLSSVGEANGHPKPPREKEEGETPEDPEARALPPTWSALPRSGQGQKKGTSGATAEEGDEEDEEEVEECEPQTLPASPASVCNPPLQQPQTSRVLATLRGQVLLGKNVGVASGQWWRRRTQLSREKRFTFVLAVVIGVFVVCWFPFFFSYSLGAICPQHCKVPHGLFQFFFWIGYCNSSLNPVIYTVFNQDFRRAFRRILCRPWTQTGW
T1 sequence (P22909 whole entry): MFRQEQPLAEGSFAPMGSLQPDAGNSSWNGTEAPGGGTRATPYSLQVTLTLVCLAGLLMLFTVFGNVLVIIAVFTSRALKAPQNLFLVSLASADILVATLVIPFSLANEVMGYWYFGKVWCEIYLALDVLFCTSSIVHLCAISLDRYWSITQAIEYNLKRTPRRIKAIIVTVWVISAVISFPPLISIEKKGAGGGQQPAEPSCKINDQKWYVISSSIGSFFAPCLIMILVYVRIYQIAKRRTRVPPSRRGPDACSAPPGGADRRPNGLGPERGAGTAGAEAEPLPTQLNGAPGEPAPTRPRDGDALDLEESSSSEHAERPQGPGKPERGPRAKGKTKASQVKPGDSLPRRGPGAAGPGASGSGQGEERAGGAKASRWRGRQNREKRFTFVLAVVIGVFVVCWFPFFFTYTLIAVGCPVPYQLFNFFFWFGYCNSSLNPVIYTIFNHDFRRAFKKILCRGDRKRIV

[2] = biological target: T1, Adrenergic receptor alpha-2; assay: Antagonist activity against B-HT 933-induced alpha-2-adrenoceptor-mediated vasoconstriction in pithed normotensive rats; type: functional
[3] = biological target: T2, Adrenergic receptor alpha-1 (Homo sapiens, UniProt P35348+P25100+P35368); assay: In vitro antagonist activity against (-)-phenylephrine or (-)-norepinephrine-induced alpha1-adrenoceptor-mediated vasoconstriction of rabbit isolated pulmonary artery.; type: functional, Oryctolagus cuniculus; conditions: target entry is the homologue from another species
T2 sequence (P35348 whole entry): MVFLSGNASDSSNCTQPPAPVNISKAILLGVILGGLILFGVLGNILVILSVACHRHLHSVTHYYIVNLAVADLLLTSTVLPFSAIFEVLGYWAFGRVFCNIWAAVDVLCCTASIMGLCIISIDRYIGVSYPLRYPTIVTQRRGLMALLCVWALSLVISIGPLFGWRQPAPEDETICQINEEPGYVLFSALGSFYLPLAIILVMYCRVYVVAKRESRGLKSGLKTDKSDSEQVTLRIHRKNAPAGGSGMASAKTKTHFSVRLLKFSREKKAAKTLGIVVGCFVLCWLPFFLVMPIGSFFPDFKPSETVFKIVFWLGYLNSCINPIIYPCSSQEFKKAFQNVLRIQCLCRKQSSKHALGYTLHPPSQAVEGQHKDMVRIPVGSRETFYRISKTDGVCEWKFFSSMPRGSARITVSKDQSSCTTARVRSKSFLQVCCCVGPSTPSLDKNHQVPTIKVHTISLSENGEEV
T2 sequence (P25100 whole entry): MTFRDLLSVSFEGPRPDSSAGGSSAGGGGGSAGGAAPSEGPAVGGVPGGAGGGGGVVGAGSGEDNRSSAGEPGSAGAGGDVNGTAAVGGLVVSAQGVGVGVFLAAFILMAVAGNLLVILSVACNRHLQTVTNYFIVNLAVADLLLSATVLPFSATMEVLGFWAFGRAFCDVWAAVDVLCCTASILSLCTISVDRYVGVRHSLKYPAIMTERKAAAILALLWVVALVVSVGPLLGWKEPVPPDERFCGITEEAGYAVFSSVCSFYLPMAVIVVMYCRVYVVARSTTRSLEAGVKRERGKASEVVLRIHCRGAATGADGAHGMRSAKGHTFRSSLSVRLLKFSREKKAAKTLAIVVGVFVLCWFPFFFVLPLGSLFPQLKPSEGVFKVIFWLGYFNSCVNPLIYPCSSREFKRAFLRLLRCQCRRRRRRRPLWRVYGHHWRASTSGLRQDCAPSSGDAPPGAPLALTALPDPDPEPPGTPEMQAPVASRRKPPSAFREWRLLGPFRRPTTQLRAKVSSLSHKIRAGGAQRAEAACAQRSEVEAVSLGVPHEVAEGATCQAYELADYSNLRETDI
T2 sequence (P35368 whole entry): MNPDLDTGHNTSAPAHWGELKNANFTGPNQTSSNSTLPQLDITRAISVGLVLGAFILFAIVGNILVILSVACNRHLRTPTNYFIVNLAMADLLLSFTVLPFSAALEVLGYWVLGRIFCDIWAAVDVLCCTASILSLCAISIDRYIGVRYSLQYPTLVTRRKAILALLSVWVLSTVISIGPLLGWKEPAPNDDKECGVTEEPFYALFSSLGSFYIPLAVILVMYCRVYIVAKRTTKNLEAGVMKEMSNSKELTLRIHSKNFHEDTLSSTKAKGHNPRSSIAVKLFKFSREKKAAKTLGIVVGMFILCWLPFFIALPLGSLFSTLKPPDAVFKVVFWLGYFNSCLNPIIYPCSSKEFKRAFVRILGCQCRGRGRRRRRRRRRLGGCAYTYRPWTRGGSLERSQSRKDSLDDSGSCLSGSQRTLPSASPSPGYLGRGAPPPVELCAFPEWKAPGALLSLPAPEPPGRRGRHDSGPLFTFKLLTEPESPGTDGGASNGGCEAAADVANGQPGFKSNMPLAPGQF

Row | Compound | IC50 [1] [nM] | pA2 [2] | pA2 [3]
1 | CN1C[C@H](C(=O)N[C@]2(C)O[C@@]3(O)[C@@H]4CCCN4C(=O)[C@H](Cc4ccccc4)N3C2=O)C[C@@H]2c3cccc4[nH]cc(c34)C[C@H]21 [DIHYDROERGOTAMINE] | 3.7 | 7.25 | 7.55
2 | C=CCN1Cc2ccccc2-c2ccccc2C1 [AZAPETINE] | 1300 | 4.88 | 6.96
